Patent US8952024B2, “Herbicidal pyrimidone derivatives” (E I du Pont de Nemours and Company, priority 2009, dated 2015)

Experiments:
Assay in all cases: Test B pre-/postemergence plant response
Format in all cases: in vivo
[1] = system: morningglory (Ipomoea coccinea)
How it was run: (§1)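 Visually scored on a 0 to 100 scale after 13 to 15 days in greenhouse versus controls. Treatments were preemergence on seeded loam/sand soil and postemergence on 1- to 4-leaf plants.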

[2] = system: large crabgrass (Digitaria sanguinalis)
How it was run: as §1

[3] = system: johnsongrass (Sorghum halepense)
How it was run: as §1

[4] = system: downy bromegrass (Bromus tectorum); conditions: for Bromegrass, Downy plant response rating (0 to 100 scale): 0 is no effect
How it was run: as §1

[5] = system: ragweed (common ragweed, Ambrosia elatior)
How it was run: as §1

[6] = system: Italian ryegrass (Lolium multiflorum)
How it was run: as §1

[7] = system: goosegrass (Eleusine indica)
How it was run: as §1

[8] = system: green foxtail (Setaria viridis)
How it was run: as §1

[9] = system: bermudagrass (Cynodon dactylon); conditions: for Bermudagrass plant response rating (0 to 100 scale): 0 is no effect
How it was run: as §1

[10] = system: giant foxtail (Setaria faberii)
How it was run: as §1

[11] = system: woolly cupgrass (Eriochloa villosa)
How it was run: as §1

[12] = system: corn (Zea mays)
How it was run: as §1

[13] = system: yellow nutsedge (Cyperus esculentus)
How it was run: as §1

[14] = 8 g ai/ha, Postemergence, 0 to 100 scale
[15] = 16 g ai/ha, Postemergence, 0 to 100 scale
[16] = Postemergence, 31 g ai/ha, 0 to 100 scale (0 no effect, 100 complete control)
[17] = 62 g ai/ha, postemergence, 100 is complete control, 13 to 15 days
[18] = 250 g ai/ha, Preemergence, 0 to 100 scale
[19] = Postemergence, 62 g ai/ha, scale 0 (no effect) to 100 (complete control), 13 to 15 days
[20] = Postemergence, 125 g ai/ha, visual rating after 13 to 15 days, scale 0 (no effect) to 100 (complete control)
[21] = Preemergence, 31 g ai/ha, scale 0 to 100 (0 no effect, 100 complete control)
[22] = Preemergence, 62 g ai/ha, scale 0 to 100 (0 no effect, 100 complete control)
[23] = Preemergence, 125 g ai/ha, 0 to 100 scale
[24] = Postemergence, 31 g ai/ha, scale 0 to 100 (0 no effect, 100 complete control)
[25] = Postemergence, 250 g ai/ha, scale 0 to 100
[26] = 31 g ai/ha, postemergence, scale 0 to 100, 0 is no effect, 100 is complete control
[27] = 62 g ai/ha, postemergence, 0 is no effect, 100 is complete control, 13 to 15 days
[28] = Postemergence, 125 g ai/ha, scale 0 to 100 (0 no effect, 100 complete control)
[29] = Postemergence, 250 g ai/ha, scale 0 to 100 (0 no effect, 100 complete control)

Cc1ccccc1-n1c(-c2cc(F)cc(F)c2)ncc(C(=O)C2=C(O)CCCC2=O)c1=O [Compound 159]
15: Plant response rating, Bromegrass, Downy [4, 14] | Plant response rating, Bromegrass, Downy [4, 15] | Plant response rating, Corn [12, 14]
25: Plant response rating, Corn [12, 15]
75: Plant response rating, Crabgrass, Large [2, 15] | Plant response rating, Foxtail, Giant [10, 14]
100: Bermudagrass plant response rating (0 to 100 scale) [9, 17]
0: Plant response rating, Morningglory [1, 14] | Plant response rating, Ryegrass, Italian [6, 14] | Plant response rating, Ryegrass, Italian [6, 15]
30: Plant response rating, Ryegrass, Italian [6, 16]
10: Plant response rating, Morningglory [1, 15] | Plant response rating, Johnsongrass [3, 14] | Plant response rating, Nutsedge, Yellow [13, 14]
90: Plant response rating, Ragweed [5, 16]
95: Plant response rating, Bermudagrass [9, 16]
60: Plant response rating, Morningglory [1, 16] | Plant response rating, Cupgrass, Woolly [11, 14] | Plant response rating, Corn [12, 16]
70: Plant response rating, Goosegrass [7, 14] | Plant response rating, Bermudagrass [9, 14] | Plant response rating, Cupgrass, Woolly [11, 16]
80: Plant response rating, Crabgrass, Large [2, 16] | Plant response rating, Ragweed [5, 15] | Plant response rating, Goosegrass [7, 15] | Plant response rating, Foxtail, Green [8, 15] | Plant response rating, Bermudagrass [9, 15] | Plant response rating, Foxtail, Giant [10, 15]
45: Plant response rating, Johnsongrass [3, 15] | Plant response rating, Johnsongrass [3, 16]
65: Plant response rating, Crabgrass, Large [2, 14] | Plant response rating, Ragweed [5, 14] | Plant response rating, Cupgrass, Woolly [11, 15]
85: Plant response rating, Goosegrass [7, 16] | Plant response rating, Foxtail, Green [8, 16] | Plant response rating, Foxtail, Giant [10, 16]
50: Bromegrass, Downy plant response rating (0 to 100 scale) [4, 17] | Plant response rating, Bromegrass, Downy [4, 16] | Plant response rating, Foxtail, Green [8, 14]
40: Plant response rating, Nutsedge, Yellow [13, 16]
20: Plant response rating, Nutsedge, Yellow [13, 15]

Cc1ccc(F)cc1-n1c(-c2ccccc2)ncc(C(=O)C2=C(O)CCCC2=O)c1=O [Compound 44]
90: Plant response rating, Crabgrass, Large [2, 19] | Plant response rating, Johnsongrass [3, 20] | Johnsongrass plant response rating [3, 23] | Plant response rating, Goosegrass [7, 19] | Plant response rating, Goosegrass [7, 20] | Plant response rating, Goosegrass [7, 21] | Plant response rating, Foxtail, Green [8, 24] | Plant response rating, Foxtail, Green [8, 19] | Plant response rating, Foxtail, Green [8, 20] | Foxtail, Green plant response rating [8, 25] | Plant response rating, Nutsedge, Yellow [13, 18]
85: Plant response rating, Crabgrass, Large [2, 24] | Bromegrass, Downy plant response rating [4, 25] | Plant response rating, Cupgrass, Woolly [11, 18] | Plant response rating, Cupgrass, Woolly [11, 20] | Corn plant response rating [12, 25]
75: Plant response rating, Morningglory [1, 20] | Plant response rating, Crabgrass, Large [2, 22] | Plant response rating, Johnsongrass [3, 22] | Foxtail, Giant plant response rating [10, 23] | Plant response rating, Corn [12, 24] | Nutsedge, Yellow plant response rating [13, 23]
98: Crabgrass, Large plant response rating [2, 25] | Plant response rating, Foxtail, Green [8, 22] | Foxtail, Green plant response rating [8, 23] | Bermudagrass plant response rating [9, 25] | Plant response rating, Foxtail, Giant [10, 18] | Foxtail, Giant plant response rating [10, 25]
70: Plant response rating, Morningglory [1, 19] | Plant response rating, Johnsongrass [3, 19] | Plant response rating, Bromegrass, Downy [4, 19]
20: Plant response rating, Ragweed [5, 21] | Plant response rating, Foxtail, Giant [10, 21]
0: Plant response rating, Morningglory [1, 21] | Plant response rating, Morningglory [1, 22] | Plant response rating, Bromegrass, Downy [4, 21] | Plant response rating, Bromegrass, Downy [4, 22] | Bromegrass, Downy plant response rating [4, 23] | Plant response rating, Ryegrass, Italian [6, 18] | Plant response rating, Ryegrass, Italian [6, 21] | Ryegrass, Italian plant response rating [6, 23] | Plant response rating, Foxtail, Green [8, 21] | Plant response rating, Cupgrass, Woolly [11, 21] | Plant response rating, Corn [12, 18] | Plant response rating, Corn [12, 21] | Plant response rating, Corn [12, 22] | Corn plant response rating [12, 23]
80: Plant response rating, Bromegrass, Downy [4, 20] | Plant response rating, Bermudagrass [9, 24] | Plant response rating, Cupgrass, Woolly [11, 24] | Plant response rating, Cupgrass, Woolly [11, 19] | Cupgrass, Woolly plant response rating [11, 23] | Plant response rating, Corn [12, 19] | Plant response rating, Corn [12, 20]
40: Plant response rating, Bromegrass, Downy [4, 24]
10: Plant response rating, Johnsongrass [3, 21] | Plant response rating, Ryegrass, Italian [6, 20]
45: Plant response rating, Foxtail, Giant [10, 22] | Plant response rating, Cupgrass, Woolly [11, 22] | Plant response rating, Nutsedge, Yellow [13, 21]
100: Plant response rating, Crabgrass, Large [2, 18] | Crabgrass, Large plant response rating [2, 23] | Plant response rating, Goosegrass [7, 18] | Goosegrass plant response rating [7, 23] | Plant response rating, Foxtail, Green [8, 18] | Plant response rating, Bermudagrass [9, 18] | Plant response rating, Bermudagrass [9, 21] | Plant response rating, Bermudagrass [9, 22] | Bermudagrass plant response rating [9, 23]
95: Plant response rating, Morningglory [1, 18] | Plant response rating, Crabgrass, Large [2, 20] | Plant response rating, Johnsongrass [3, 18] | Johnsongrass plant response rating [3, 25] | Plant response rating, Ragweed [5, 18] | Plant response rating, Ragweed [5, 19] | Plant response rating, Ragweed [5, 20] | Ragweed plant response rating [5, 23] | Goosegrass plant response rating [7, 25] | Plant response rating, Bermudagrass [9, 19] | Plant response rating, Bermudagrass [9, 20] | Plant response rating, Foxtail, Giant [10, 24] | Plant response rating, Foxtail, Giant [10, 19] | Plant response rating, Foxtail, Giant [10, 20] | Cupgrass, Woolly plant response rating [11, 25]
50: Morningglory plant response rating [1, 23] | Plant response rating, Nutsedge, Yellow [13, 19] | Plant response rating, Nutsedge, Yellow [13, 20]
5: Plant response rating, Bromegrass, Downy [4, 18] | Plant response rating, Ryegrass, Italian [6, 19]
65: Plant response rating, Crabgrass, Large [2, 21]

CCCn1c(-c2ccc(F)cc2)ncc(C(=O)C2=C(O)CCCC2=O)c1=O [Compound 102]
45: Plant response rating, Nutsedge, Yellow [13, 26]
90: Plant response rating, Crabgrass, Large [2, 29] | Plant response rating, Goosegrass [7, 29] | Foxtail, Green plant response rating (0 to 100 scale) [8, 27] | Plant response rating, Foxtail, Green [8, 28]
5: Plant response rating, Ryegrass, Italian [6, 28]
85: Plant response rating, Crabgrass, Large [2, 28] | Plant response rating, Ragweed [5, 28] | Bermudagrass plant response rating (0 to 100 scale) [9, 17] | Plant response rating, Bermudagrass [9, 28] | Plant response rating, Cupgrass, Woolly [11, 29]
65: Plant response rating, Morningglory [1, 26] | Plant response rating, Corn [12, 28] | Nutsedge, Yellow plant response rating (0 to 100 scale) [13, 27]
55: Plant response rating, Goosegrass [7, 26]
100: Morningglory plant response rating (0 to 100 scale) [1, 27] | Plant response rating, Morningglory [1, 28] | Plant response rating, Morningglory [1, 29] | Plant response rating, Bermudagrass [9, 29]
10: Bromegrass, Downy plant response rating (0 to 100 scale) [4, 17] | Plant response rating, Bromegrass, Downy [4, 28] | Plant response rating, Ryegrass, Italian [6, 29]
80: Crabgrass, Large plant response rating (0 to 100 scale) [2, 27] | Ragweed plant response rating (0 to 100 scale) [5, 27] | Plant response rating, Goosegrass [7, 28] | Plant response rating, Foxtail, Green [8, 26] | Plant response rating, Bermudagrass [9, 26] | Plant response rating, Foxtail, Giant [10, 28] | Plant response rating, Nutsedge, Yellow [13, 29]
70: Plant response rating, Crabgrass, Large [2, 26] | Goosegrass plant response rating (0 to 100 scale) [7, 27] | Plant response rating, Foxtail, Giant [10, 26] | Plant response rating, Cupgrass, Woolly [11, 26] | Plant response rating, Corn [12, 29]
60: Plant response rating, Johnsongrass [3, 28]
25: Johnsongrass plant response rating (0 to 100 scale) [3, 27]
95: Plant response rating, Ragweed [5, 29] | Plant response rating, Foxtail, Green [8, 29] | Plant response rating, Foxtail, Giant [10, 29]
30: Plant response rating, Bromegrass, Downy [4, 29]
0: Plant response rating, Bromegrass, Downy [4, 26] | Ryegrass, Italian plant response rating (0 to 100 scale) [6, 27]
20: Plant response rating, Johnsongrass [3, 26]
75: Plant response rating, Johnsongrass [3, 29] | Foxtail, Giant plant response rating (0 to 100 scale) [10, 27] | Cupgrass, Woolly plant response rating (0 to 100 scale) [11, 27] | Plant response rating, Cupgrass, Woolly [11, 28] | Plant response rating, Nutsedge, Yellow [13, 28]
15: Corn plant response rating (0 to 100 scale) [12, 27]
